Patent US11291201B2, “Solutions for increasing the stability and shelf life of an organ and tissue preservation solution” (Marizyme, Inc., priority 2013, dated 2022)
Like-named read-outs stand apart in the source and are kept apart here.

Assays:
[1] = Protocol: The real time stability studies at 5° C. have progressed for about one year thus far.
(§1) The values of the exponents in the equation derived from the exponential fit are the first order rate constant k1 (in units of days^−1).

[2] = 40° C., Solution B
From the text: as §1

time until product specification for L-glutathione approached its limit of expiration ([1]; 5° C., from first order fit of 12-15 month real time data): about 100 months
energy of activation for decomposition ([1]; corresponds to Q10 value of 2.94): 79.5 kJ/mol
time until product specification for L-glutathione approached its limit of expiration [2]: approximately 73 days
SMILES: N[C@@H](CCC(=O)N[C@@H](CS)C(=O)NCC(=O)O)C(=O)O [L-glutathione]
